According to PMC10673369, “Preliminary SAR of Novel Pleuromutilin–Polyamine Conjugates” (Microorganisms, 2023):
≈ marks a conversion by molar mass, not a printed value.

Assays:
E. coli ATCC 25922 = assay: MIC, broth dilution, E. coli; format: cell-based, Escherichia coli; conditions: for MIC: Escherichia coli, ATCC25922, mean (n = 3)
Procedure: (§1) The susceptibility of bacterial strains S. aureus (ATCC 25923), E. coli (ATCC 25922), and P. aeruginosa (ATCC 27853 or PAO1) to antibiotics and compounds was determined using reported protocols. Additional antimicrobial evaluation against MRSA (ATCC 43300), Klebsiella pneumoniae (ATCC 700603), A. baumannii (ATCC 19606), Candida albicans (ATCC 90028), and Cryptococcus neoformans (ATCC 208821) was undertaken at the Community for Open Antimicrobial Drug Discovery at The University of Queensland (Australia) according to their standard protocols as reported previously. […]
(§2) 2.3. Antimicrobial Assays
(§3) The susceptibility of bacterial strains S. aureus (ATCC 25923), E. coli (ATCC 25922), and P. aeruginosa (ATCC 27853 or PAO1) to antibiotics and compounds was determined in microplates using the standard broth dilution method in accordance with the recommendations of the Comité de l’AntibioGramme de la Société Française de Microbiologie (CA-SFM). Briefly, the minimal inhibitory concentrations (MICs) were determined with an inoculum of 10^5 CFU in 200 µL of Mueller–Hinton broth (MHB) containing two-fold serial dilutions of each drug. The MIC was defined as the lowest […]
(§4) determine all MICs, the measurements were independently repeated in triplicate. Additional antimicrobial evaluation against MRSA (ATCC 43300), Klebsiella pneumoniae (ATCC 700603), A. baumannii (ATCC 19606), Candida albicans (ATCC 90028), and Cryptococcus neoformans (ATCC 208821) was undertaken at the Community for Open Antimicrobial Drug Discovery at The University of Queensland (Australia) according to their standard protocols as reported previously. […]

MRSA ATCC 43300 = assay: MIC, CO-ADD broth microdilution, MRSA; format: cell-based, methicillin-resistant S. aureus; conditions: Staphylococcus aureus; MRSA ATCC 43300; mean (n = 2); read-out: MIC MRSA
Procedure: as §1, §2
(§5) The susceptibility of bacterial strains S. aureus (ATCC 25923), E. coli (ATCC 25922), and P. […]
(§6) baumannii (ATCC 19606), Candida albicans (ATCC 90028), and Cryptococcus neoformans (ATCC 208821) was undertaken at the Community for Open Antimicrobial Drug Discovery at The University of Queensland (Australia) according to their standard protocols as reported previously. For antimicrobial assays, the tested strains were cultured in either Luria broth (LB) (In Vitro Technologies, USB75852), nutrient broth (NB) (Becton Dickson, 234000), or MHB at 37 °C overnight. A sample of culture was then diluted 40-fold in fresh MHB and incubated at 37 °C for 1.5−2 h. The compounds were serially diluted 2-fold across the wells of 96-well plates (Corning 3641, non-binding surface), with compound concentrations ranging from 0.015 to 64 µg/ mL, and plated in duplicate. The resultant mid-log phase cultures were diluted to the final concentration of 1 × 10^6 CFU/mL; then, 50 µL was added to each well of the compound-containing plates, giving a final compound concentration range of 0.008 to 32 µg/mL and a cell density of 5 × 10^5 CFU/mL. All plates were then covered and incubated at 37 °C for 18 h. Resazurin was added at 0.001% final concentration to each well and incubated for 2 h before MICs […]
(§7) For C. neoformans, resazurin was added at 0.006% final concentration to each well and incubated for a further 3 h before MICs were determined by measuring […]
(§8) Colistin and vancomycin were used as positive bacterial inhibitor standards for Gram-negative and Gram-positive bacteria, respectively. Fluconazole was used as a positive fungal inhibitor standard for C. albicans and C. neoformans. The antibiotics were provided in […], with 3 above and 3 below its MIC value, and plated into the first 8 wells of column 23 of the 384-well NBS plates. The quality control (QC) of the assays was determined by the antimicrobial controls and the Z'-factor (using positive and negative controls). Each plate was deemed to fulfil the quality criteria (pass QC) if the Z'- […]
(§9) inhibition at their highest concentration, and no growth inhibition at their lowest concentration.
(§10) 2.4. Determination of the MICs of Antibiotics in the Presence of Synergizing Compounds

P. aeruginosa PAO1 = assay: MIC, broth dilution, P. aeruginosa PAO1; format: cell-based; conditions: mean (n = 3); for MIC: Pseudomonas aeruginosa
Procedure: as §1, §2, §3, §4, §7, §8, §9, §10

A. baumannii ATCC 19606 = assay: MIC, CO-ADD broth microdilution, A. baumannii; format: cell-based; conditions: for MIC: Acinetobacter baumannii, ATCC19606, mean (n = 2)
Procedure: as §1, §2, §5, §6, §7, §8, §9, §10

[1] = tested on: K. pneumoniae ATCC 700603; assay: MIC, CO-ADD broth microdilution, K. pneumoniae; format: cell-based, Klebsiella pneumoniae; conditions: for MIC: Klebsiella pneumoniae, ATCC700603, mean (n = 2)
Procedure: as §1, §2, §5, §6, §7, §8, §9, §10

Row | Compound | MIC (E. coli ATCC 25922) [µM] | MIC (MRSA ATCC 43300) [µM] | MIC (P. aeruginosa PAO1) [µM] | MIC (A. baumannii ATCC 19606) [µM] | MIC [1] [µM] | MIC E.c. (E. coli ATCC 25922; mean (n = 3)) | MIC P.a. (P. aeruginosa PAO1) | MIC A.b. (A. baumannii ATCC 19606; mean (n = 2)) | MIC K.p. ([1]; mean (n = 2))
1 | C=C[C@]1(C)C[C@@H](OC(=O)CNCCCNCCCCNCCCNCC(=O)O[C@@H]2C[C@@](C)(C=C)[C@@H](O)[C@H](C)[C@]34CCC(=O)[C@H]3[C@@]2(C)[C@H](C)CC4)[C@]2(C)[C@H](C)CC[C@]3(CCC(=O)[C@H]32)[C@@H](C)[C@@H]1O.O=C(O)C(F)(F)F.O=C(O)C(F)(F)F.O=C(O)C(F)(F)F.O=C(O)C(F)(F)F [Compound 9a, N^1,N^1′-(Butane-1,4-diyl)bis(N^3-(2-(((3aR,4R,5R,7S,8S,9R,9aS,12R)-8-hydroxy-4,7,9,12-tetramethyl-3-oxo-7-vinyldecahydro-4,9a-propanocyclopenta [8]annulen-5-yl)oxy)-2-oxoethyl)propane-1,3-diaminium) 2,2,2-trifluoroacetate] | 18.1 | 23.2 | 72.5 | > 23.2 | > 23.2 |  |  |  | 
2 | C=C[C@]1(C)C[C@@H](OC(=O)CNCCCNCCCCCCCCNCCCNCC(=O)O[C@@H]2C[C@@](C)(C=C)[C@@H](O)[C@H](C)[C@]34CCC(=O)[C@H]3[C@@]2(C)[C@H](C)CC4)[C@]2(C)[C@H](C)CC[C@]3(CCC(=O)[C@H]32)[C@@H](C)[C@@H]1O.O=C(O)C(F)(F)F.O=C(O)C(F)(F)F.O=C(O)C(F)(F)F.O=C(O)C(F)(F)F [Compound 9d, N^1,N^1′-(Octane-1,8-diyl)bis(N^3-(2-(((3aR,4R,5R,7S,8S,9R,9aS,12R)-8-hydroxy-4,7,9,12-tetramethyl-3-oxo-7-vinyldecahydro-4,9a-propanocyclopenta [8]annulen-5-yl)oxy)-2-oxoethyl)propane-1,3-diaminium) 2,2,2-trifluoroacetate] | 70 | 5.57 | > 139 | > 22.3 | > 22.3 |  |  |  | 
3 | C=C[C@]1(C)C[C@@H](OC(=O)CSCCN(CC)CC)[C@]2(C)[C@H](C)CC[C@]3(CCC(=O)[C@H]32)[C@@H](C)[C@@H]1O [Compound 2, Tiamulin, reference compound] | 200 (≈ 98.8 µg/mL) | ≤ 0.51 | 800 | > 64.8 | > 64.8 | no activity | no activity | no activity | no activity
4 | C=C[C@]1(C)C[C@@H](OC(=O)CNCCCNCCCCCCCNCCCNCC(=O)O[C@@H]2C[C@@](C)(C=C)[C@@H](O)[C@H](C)[C@]34CCC(=O)[C@H]3[C@@]2(C)[C@H](C)CC4)[C@]2(C)[C@H](C)CC[C@]3(CCC(=O)[C@H]32)[C@@H](C)[C@@H]1O.O=C(O)C(F)(F)F.O=C(O)C(F)(F)F.O=C(O)C(F)(F)F.O=C(O)C(F)(F)F [Compound 9c, N^1,N^1′-(Heptane-1,7-diyl)bis(N^3-(2-(((3aR,4R,5R,7S,8S,9R,9aS,12R)-8-hydroxy-4,7,9,12-tetramethyl-3-oxo-7-vinyldecahydro-4,9a-propanocyclopenta [8]annulen-5-yl)oxy)-2-oxoethyl)propane-1,3-diaminium) 2,2,2-trifluoroacetate] | 35.2 | ≤ 0.18 | > 141 | > 22.5 | > 22.5 |  |  |  | 
5 | C=C[C@]1(C)C[C@@H](OC(=O)CNCCCNCCCCCCCCCCNCCCNCC(=O)O[C@@H]2C[C@@](C)(C=C)[C@@H](O)[C@H](C)[C@]34CCC(=O)[C@H]3[C@@]2(C)[C@H](C)CC4)[C@]2(C)[C@H](C)CC[C@]3(CCC(=O)[C@H]32)[C@@H](C)[C@@H]1O.O=C(O)C(F)(F)F.O=C(O)C(F)(F)F.O=C(O)C(F)(F)F.O=C(O)C(F)(F)F [Compound 9e, N^1,N^1′-(Decane-1,10-diyl)bis(N^3-(2-(((3aR,4R,5R,7S,8S,9R,9aS,12R)-8-hydroxy-4,7,9,12-tetramethyl-3-oxo-7-vinyldecahydro-4,9a-propanocyclopenta [8]annulen-5-yl)oxy)-2-oxoethyl)propane-1,3-diaminium) 2,2,2-trifluoroacetate] | 4.27 | ≤ 0.17 | > 88 | > 21.9 | > 21.9 |  |  |  | 
6 | C=C[C@]1(C)C[C@@H](OC(=O)CNCCCNCCCCCCCCCCCCNCCCNCC(=O)O[C@@H]2C[C@@](C)(C=C)[C@@H](O)[C@H](C)[C@]34CCC(=O)[C@H]3[C@@]2(C)[C@H](C)CC4)[C@]2(C)[C@H](C)CC[C@]3(CCC(=O)[C@H]32)[C@@H](C)[C@@H]1O.O=C(O)C(F)(F)F.O=C(O)C(F)(F)F.O=C(O)C(F)(F)F.O=C(O)C(F)(F)F [Compound 9f, N^1,N^1′-(Dodecane-1,12-diyl)bis(N^3-(2-(((3aR,4R,5R,7S,8S,9R,9aS,12R)-8-hydroxy-4,7,9,12-tetramethyl-3-oxo-7-vinyldecahydro-4,9a-propanocyclopenta [8]annulen-5-yl)oxy)-2-oxoethyl)propane-1,3-diaminium) 2,2,2-trifluoroacetate] | 4.19 | ≤ 0.17 | 33.5 | 2.7 | 21.5 |  |  |  | 
7 | C=C[C@]1(C)C[C@@H](OC(=O)CNCCCNCCCCCCNCCCNCC(=O)O[C@@H]2C[C@@](C)(C=C)[C@@H](O)[C@H](C)[C@]34CCC(=O)[C@H]3[C@@]2(C)[C@H](C)CC4)[C@]2(C)[C@H](C)CC[C@]3(CCC(=O)[C@H]32)[C@@H](C)[C@@H]1O.O=C(O)C(F)(F)F.O=C(O)C(F)(F)F.O=C(O)C(F)(F)F.O=C(O)C(F)(F)F [Compound 9b, N^1,N^1′-(Hexane-1,6-diyl)bis(N^3-(2-(((3aR,4R,5R,7S,8S,9R,9aS,12R)-8-hydroxy-4,7,9,12-tetramethyl-3-oxo-7-vinyldecahydro-4,9a-propanocyclopenta [8]annulen-5-yl)oxy)-2-oxoethyl)propane-1,3-diaminium) 2,2,2-trifluoroacetate] | 8.88 | ≤ 0.18 | 142 | > 22.7 | > 22.7 |  |  |  | 
